The results in this text go back to article PMC6832219, “Synthesis of Novel Baicalein Amino Acid Derivatives and Biological Evaluation as Neuroprotective Agents” (Molecules, 2019).

For orientation: EC50 means the concentration that produces a half-maximal response. What is called melting point is the temperature, or range, at which the solid turns liquid. One may read the IC50 as the concentration at which inhibition is half-maximal. Read a high IC50 as weaker potency in that assay.

The subject of one data set is injured SH-SY5Y cells. Kind of data set: Protective effect against tert-butyl hydroperoxide-induced SH-SY5Y neurotoxicity cells (MTT assay).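 On Proliferation Rate (%): 0% equals CoCl2-injured cells and 100% equals NGF-treated cells.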 In kind it is cell-based. Conditions: Homo sapiens; for viability at 3.125 µM / viability at 6.25 µM / viability at 12.5 µM / viability at 25 µM / viability at 50 µM: injured SH-SY5Y cells, read-out: Proliferation Rate (%); for EC50: tert-butyl hydroperoxide-induced SH-SY5Y neurotoxicity, read-out: EC50 for protecting injured SH-SY5Y cells. The procedure: The protective effects of baicalein derivatives in vitro was evaluated against tert-butyl, hydroperoxide-induced, SH-SY5Y neurotoxicity cells using an MTT assay. In addition, their toxicity evaluation was tested on normal H9C2 cells. The resulting proliferation rates (%) at different concentrations, as well as their 50% effective concentrations (EC50) for protecting damaged SH-SY5Y cells of the baicalein amino acid derivatives, are summarized in Table 2.
(§1) The SH-SY5Y ([…]) and H9C2 ([…]) cell lines were obtained from the Chinese Academy of Medical Sciences and Peking Union Medical College. All of the cell lines were grown in dulbecco’s modified eagle medium (DMEM) with 10% (v/v) fetal bovine serum (FBS) and 1% (v/v) penicillin/streptomycin (Thermo Technologies, New York, NY, USA), under a humidified atmosphere containing 5% CO2 at 37 °C. The baicalein derivatives were dissolved in DMSO (Sigma, St. Louis, MO, USA) and added at various concentrations to the cell culture.
(§2) The protective effect of these compounds was evaluated on SH-SY5Y and H9C2 cell lines via the MTT method. The cells growing in the logarithmic phase were cultured in 96-well plates at a density 3 × 10^3 cells/well and incubated for 24 h. Then each well was treated with the required concentrations (50 µM concentrations, 25 µM concentrations, 12.5µM concentrations, 6.25 µM concentrations, and 3.125 µM concentrations) of baicalein derivatives, and incubated 36 h at 37 °C with 5% CO2. After that, the cells were induced by H2O2 (final concentration, […]) for 12 h. Control-differentiated cells were injected with new growth media at equal amounts. Before […] MTT solution (5 mg/mL) was added to each well, the cell culture fluid was discarded, and […] fresh cell culture fluid was added. The plate was incubated for a further 4 h at 37 °C. The cell supernatant medium was removed carefully, without disturbing the attached cells, and formazan crystals were solubilized by adding 150 μL DMSO into each well. The absorbance was measured at 490 nm with a plate reader (BIORAD 550 spectrophotometer, Bio-rad Life Science Development Ltd., Beijing, China). H2O2 was dissolved in DMEM medium. Wells without drugs were used as blanks. The EC50 values were defined as the concentrations that causes the maximum effect of 50%; IC50 values were defined as the concentration of compound which gives 50% growth inhibition, and were calculated using the GraphPad Prism 5. The proliferation rates of damaged SH-SY5Y cells were calculated in the following formula (1): [OD490 (compound) − OD490 (CoCl2)]/[OD490 (NGF) − OD490 (CoCl2)] × 100%(1) The EC50 values were using the equation −pEC50 = log Cmax − log 2 × (ΣP − 0.75 + 0.25Pmax + 0.25Pmin)(2) where Cmax is the maximum concentration, ΣP is the sum of proliferation rates, Pmax is the maximum value of the proliferation rate, and Pmin is the minimum value of the proliferation rate. Cell viability was expressed as a percentage of the control.
(In general: Tetrazolium assays rely on reduction of a dye to a coloured formazan, in cell work by metabolically active cells.)

Data set [1] has as its system H9C2 cells. Put plainly: Toxicity on normal H9C2 cells (MTT assay). Conditions: MTT; for viability at 6.25 µM / viability at 12.5 µM / viability at 25 µM / viability at 50 µM: H9C2 cells, read-out: Survival Rate (%); for IC50: normal H9C2 cells. The class given is cell-based. The procedure:
To study cytotoxicity on normal cells, the cytotoxicity of compounds against normal H9C2 cells were tested.
as §1, §2
The inhibition rate was calculated in the following equation: % inhibition = 1 − (Sample group OD/Control group OD) × 100%(3)

In data set [2] the test system is H9C2 cells. Put plainly: Toxicity on normal H9C2 cells (MTT assay). Particulars: read-out: Survival Rate (%). In kind it is cell-based.

Some results are limits rather than exact numbers.

In turn, `O=C(NCCCCC(NC(=O)OCc1ccccc1)C(=O)Oc1cc2oc(-c3ccccc3)cc(=O)c2c(O)c1O)OCc1ccccc1` (stereo not shown) [Compound 12, 5,6-dihydroxy-4-oxo-2-phenyl-4H-chromen-7-yl 2,6-di{[(benzyloxy)carbonyl]amino} hexanoate] showed a melting point of 144.9 °C. Moreover, in the data set on injured SH-SY5Y cells, the viability at 3.125 µM came out at 1.1%, the viability at 6.25 µM was determined as 2.35%, the viability at 12.5 µM was 7.83% and the viability at 25 µM was 20.8%. Further, in the data set with injured SH-SY5Y cells, the viability at 50 µM amounted to 7.34% and the EC50 came out at 61.6 µM. Moreover, in the data set on H9C2 cells [1], the viability at 6.25 µM turned out to be 216%, the viability at 12.5 µM was determined as 207%, the viability at 25 µM was 200% and the viability at 50 µM was 187%. In the data set with H9C2 cells [1], the IC50 is over 100 µM. The viability at 100 µM with H9C2 cells [2] is 184%.
In turn, `CN(CC(=O)Oc1cc2oc(-c3ccccc3)cc(=O)c2c(O)c1OC(=O)CN(C)C(=O)OC(C)(C)C)C(=O)OC(C)(C)C` [Compound 13, 7-[(2-{[(tert-butoxy)carbonyl](methyl)amino}acetyl)oxy]-5-hydroxy-4-oxo-2-phenyl-4H-chromen-6-yl 2-{[(tert-butoxy)carbonyl](methyl)amino}acetate] had a melting point of 205.1 °C. In the data set on injured SH-SY5Y cells, the viability at 3.125 µM was determined as 40.1%, the viability at 6.25 µM was found to be 92.1%, the viability at 12.5 µM amounted to 91.5% and the viability at 25 µM amounted to 73%. Also, in the data set on injured SH-SY5Y cells, the viability at 50 µM came to 65.9% and the EC50 was determined as 5.42 µM. In addition, in the data set with H9C2 cells [1], the viability at 6.25 µM was 215%, the viability at 12.5 µM came out at 166%, the viability at 25 µM was determined as 152% and the viability at 50 µM turned out to be 132%. Also, in the data set on H9C2 cells [1], the IC50 was over 100 µM. Moreover, the viability at 100 µM with H9C2 cells [2] came out at 123%.
`O=C(CC(NC(=O)OCc1ccccc1)C(=O)OCc1ccccc1)Oc1c(O)cc2oc(-c3ccccc3)cc(=O)c2c1O` (stereo not shown) [Compound 4, 1-benzyl 5,7-dihydroxy-4-oxo-2-phenyl-4H-chromen-6-yl 2-{[(benzyloxy)carbonyl]amino} butanedioate] showed a melting point of 157.8 °C. Also, in the data set with injured SH-SY5Y cells, the viability at 3.125 µM was 59.1%, the viability at 6.25 µM came to 94.1%, the viability at 12.5 µM turned out to be 77.7% and the viability at 25 µM came out at 70.2%. In the data set with injured SH-SY5Y cells, the viability at 50 µM is 54.8% and the EC50 came out at 5.51 µM. Besides, in the data set on H9C2 cells [1], the viability at 6.25 µM is 156%, the viability at 12.5 µM stood at 140%, the viability at 25 µM stood at 140% and the viability at 50 µM turned out to be 131%. In addition, the IC50 in the data set with H9C2 cells [1] is over 100 µM. Moreover, the viability at 100 µM in the data set with H9C2 cells [2] was 126%.
In turn, `CN(CC(=O)Oc1cc2oc(-c3ccccc3)cc(=O)c2c(O)c1O)C(=O)OC(C)(C)C` [Compound 5, 5,6-dihydroxy-4-oxo-2-phenyl-4H-chromen-7-yl 2{[(tert-butoxy)carbonyl](methyl)amino}acetate] came in with a melting point of 218 °C. In the data set on injured SH-SY5Y cells, the viability at 3.125 µM is 28.4%, the viability at 6.25 µM amounted to 37.6%, the viability at 12.5 µM stood at 76.4% and the viability at 25 µM stood at 78.1%. In the data set with injured SH-SY5Y cells, the viability at 50 µM is 60.7% and the EC50 was 9.96 µM. Further, in the data set with H9C2 cells [1], the viability at 6.25 µM came to 116%, the viability at 12.5 µM came to 116%, the viability at 25 µM came out at 105% and the viability at 50 µM amounted to 95.1%. Besides, the IC50 in the data set with H9C2 cells [1] is over 100 µM. For the same compound, the viability at 100 µM in the data set on H9C2 cells [2] is 76.9%.
